Data reported in PMC7053825 (European journal of medicinal chemistry, 2020).

Columns and labels:
[1] = Human plasma stability assay; assay type: in vitro ADME
HIV-1 NL4-3 virus = experiment: In vitro anti-HIV assay in TZM-bl cells; assay type: cell-based
[2] = molecular target: HIV-1NL4-3 capsid protein (CA hexamer); experiment: SPR binding to CA hexamer; conditions: hexamer versus monomer
in vitro = conditions: human, microsomes
[3] = test system: NL4-3 Env pseudo-typed HIV-I virus; experiment: ELISA-based quantification of capsid; assay type: cell-based, HIV-1; conditions: 10 μM compound, compared to the DMSO control
HIV-1 CA = HIV-1 CA (Human immunodeficiency virus type 1 group M subtype B, UniProt P12493); experiment: In vitro capsid assembly assay; assay type: biochemical; conditions: capsid 30 μM, compound 50 μM, 3M NaCl, compared to DMSO control

Which remaining at 0 h [1] does the source give for CC(C)[N+](C)(CCOC(=O)C1c2ccccc2Oc2ccccc21)C(C)C [Propantheline bromide, reference compound] here?
Its remaining at 0 h is 100%.

For COc1ccc(N(C)C(=O)[C@H](Cc2ccccc2)NC(=O)Cn2cc(-c3ccccc3NC(=O)c3cccc(OC)c3)nn2)cc1 [6a-5, (S)-3-methoxy-N-(2-(1-(2-((1-((4-methoxyphenyl)(methyl)amino)-1-oxo-3-phenylpropan-2-yl)amino)-2-oxoethyl)-1H-1,2,3-triazol-4-yl)phenyl)benzamide], which “fold decrease in antiviral activity” value (HIV-1 NL4-3 virus; EC50 relative to 6a-2) is on record?
The value was 3.4 fold.

With COc1ccc(N(C)C(=O)[C@H](Cc2ccccc2)NC(=O)Cn2cc(-c3cccc(NC(=O)c4cccc(F)c4)c3)nn2)cc1 [6b-10, (S)-3-fluoro-N-(3-(1-(2-((1-((4-methoxyphenyl)(methyl)amino)-1-oxo-3-phenylpropan-2-yl)amino)-2-oxoethyl)-1H-1,2,3-triazol-4-yl)phenyl)benzamide] as the compound, how does the fold better active (HIV-1 NL4-3 virus; EC50 with respect to 6b-2) read?
The fold better active was 1.3 fold.

With COc1ccc(N(C)C(=O)[C@H](Cc2ccccc2)NC(=O)Cn2cc(-c3ccccc3NC(=O)c3cccc(F)c3)nn2)cc1 [6a-10, (S)-3-fluoro-N-(2-(1-(2-((1-((4-methoxyphenyl)(methyl)amino)-1-oxo-3-phenylpropan-2-yl)amino)-2-oxoethyl)-1H-1,2,3-triazol-4-yl)phenyl)benzamide] as the compound, how does the “difference in KD values for hexameric and monomeric CA” value [2] read?
The value was “no significant differences”.

For COc1ccc(N(C)C(=O)[C@H](Cc2ccccc2)NC(=O)Cn2cc(-c3cccc(NC(C)=O)c3)nn2)cc1 [6b-1, (S)-2-(2-(4-(3-acetamidophenyl)-1H-1,2,3-triazol-1-yl)acetamido)-N-(4-methoxyphenyl)-N-methyl-3-phenylpropanamide], which “fold decrease in antiviral activity” value (HIV-1 NL4-3 virus; EC50 relative to 5b) is on record?
Its value is 4.5 fold.

For COc1ccc(N(C)C(=O)[C@H](Cc2ccccc2)NC(=O)Cn2cc(-c3ccccc3NC(=O)c3ccccc3F)nn2)cc1 [6a-9, (S)-2-fluoro-N-(2-(1-(2-((1-((4-methoxyphenyl)(methyl)amino)-1-oxo-3-phenylpropan-2-yl)amino)-2-oxoethyl)-1H-1,2,3-triazol-4-yl)phenyl)benzamide], which CLint scaled at 1 h (in vitro) is on record?
The CLint scaled at 1 h was 1400 mL/min/kg.

And the remaining at 0 h [1]?
The remaining at 0 h was 100%.

What about the “reduction of p24 of the produced virus” value [3] of the same compound?
Its value is “about 15%”.

And the “difference in KD values for hexameric and monomeric CA” value [2]?
The value was “no significant differences”.

For COc1ccc(C(=O)Nc2ccccc2-c2cn(CC(=O)N[C@@H](Cc3ccccc3)C(=O)N(C)c3ccc(OC)cc3)nn2)cc1 [6a-6, (S)-4-methoxy-N-(2-(1-(2-((1-((4-methoxyphenyl)(methyl)amino)-1-oxo-3-phenylpropan-2-yl)amino)-2-oxoethyl)-1H-1,2,3-triazol-4-yl)phenyl)benzamide], which EC50 (HIV-1 NL4-3 virus; Human immunodeficiency virus 1, NL43, TZM-bl) is on record?
Its EC50 is > 16.2 µM.

With Cc1[nH]c2ccccc2c1CC(=O)N[C@@H](Cc1ccccc1)C(=O)N(C)c1ccccc1 [PF-74] as the compound, how does the CLint scaled at 1 h (in vitro) read?
Its CLint scaled at 1 h is 2160 mL/min/kg.

What about the “effect on in vitro assembly of HIV-1 CA” value (HIV-1 CA) of the same compound?
The value was “accelerated the assembly of HIV-1 CA”.

For COc1ccc(N(C)C(=O)[C@H](Cc2ccccc2)NC(=O)Cn2cc(-c3ccccc3NC(=O)c3ccccc3OC)nn2)cc1 [6a-4, (S)-2-methoxy-N-(2-(1-(2-((1-((4-methoxyphenyl)(methyl)amino)-1-oxo-3-phenylpropan-2-yl)amino)-2-oxoethyl)-1H-1,2,3-triazol-4-yl)phenyl)benzamide], which “fold decrease in antiviral activity” value (HIV-1 NL4-3 virus; EC50 relative to 6a-2) is on record?
The value was 2.2 fold.

For COc1ccc(N(C)C(=O)[C@H](Cc2ccccc2)NC(=O)Cn2cc(-c3cccc(NC(=O)c4ccccc4)c3)nn2)cc1 [6b-2, (S)-N-(3-(1-(2-((1-((4-methoxyphenyl)(methyl)amino)-1-oxo-3-phenylpropan-2-yl)amino)-2-oxoethyl)-1H-1,2,3-triazol-4-yl)phenyl)benzamide], which “fold decrease in antiviral activity” value (HIV-1 NL4-3 virus; EC50 relative to 5b) is on record?
Its value is 3.9 fold.

For C[C@]12CC[C@H]3[C@@H](CCC4=CC(=O)CC[C@@]43C)[C@@H]1CC[C@@H]2O [Testosterone], which CLint scaled at 1 h (in vitro) is on record?
The CLint scaled at 1 h was 169 mL/min/kg.

And the “Remaining (T=60min)” value (HLM 0.5 mg protein/mL)?
Its value is 3.6%.

What about the “Remaining (NCF=60min)” value (HLM, no cofactor (no NADPH regenerating system)) of the same compound?
Its value is 74.4%.
